Key:
[1] = test system: Middle Cerebral Artery Occlusion (MCAo) rats; test: Middle cerebral artery occlusion (MCAo) rat model: infarct volume, edema volume, premature mortality; type: in vivo, male Sprague-Dawley rats
Description: For Middle Cerebral Artery Occlusion (MCAo), male Sprague-Dawley rats (270 to 330 g) were anesthetized with gaseous isoflurane. With aseptic surgical techniques, a laser-Doppler probe was placed on the right temporal-lateral portion of the skull over a region of the cortex which is supplied by the middle cerebral artery to record cerebral blood flow (CBF). CBF was recorded before and after arterial occlusion. The bifurcation of the right external common carotid 8 artery (ECA) and internal common carotid artery (ICA) was surgically exposed. A 4-0 monofilament suture treated with a silicone coating to enlarge the tip to better achieve an arterial block was placed into the ECA stump, and advanced up the ICA approximately 20 mm until a drop in CBF of approximately 75% or greater was measured by laser Doppler flowmetry (PeriFlux PF5010, Perimed). The duration of the ischemia was 120 minutes.
PAN-811 was originally dissolved to a concentration of 25.6 mmol/L in 7% (v/v) polyethylene glycol (PEG) 300, 3% ethanol (EtOH), 28.6 mmol/L citric acid and 5.7 mmol/L L-ascorbic acid solution. 25.6 mmol/L was the highest concentration of PAN-811 used for dosing. This solution was further diluted with normal saline to produce dosing solutions of 2.56 mmol/L, 5.12 mmol/L, and 10.2 mmol/L on the day of surgery. Vehicle dosing solutions were identical in components to the 5.12 mmol/L PAN-811 group (Vehicle Low), or the 10.2 mmol/L group (Vehicle High). These treatments were delivered intravenously route into MCAo rats at reperfusion time. […]
After 22 hours of treatment, the animals were sacrificed by CO2 asphyxiation, and their brains sectioned at 2 mm intervals. […] Brain areas were traced and measured using a computerized image analysis system (SimplePCI Version 4.0.0, Compix Inc) to determine infarct volume (in cubic millimeters, mm^3), whereby unstained areas were defined as ischemic lesions of infarcted tissue.
Ischemic stroke often results in brain edema (Ayata et al., 2002). Therefore, the volumes for both ipsilateral and contralateral side hemispheres of MCAo rats were measured 22 hours later, and the edema volumes (hemisphere volume of the ipsilateral side hemisphere volume of contralateral one) were calculated, and expressed as mean±SEM (FIG. 1B). […]
Brain edema can result in death of MCAo rats. Therefore, the mortalities for vehicle groups and PAN-811 treated groups, as explained in Examples 1 and 2, were counted (FIG. 1C). Mortalities of general vehicle treated groups (open bar) and collective PAN-811 treated groups (black bar) were determined and premature death rates were expressed as percentage of total animal number in each condition. […]

[2] = target: T1, Recombinant human pro-MMP-9 (Homo sapiens, UniProt P14780); test: MMP Assay Kit (5-FAM/QXL520 FRET peptide) for MMP-9 bioactivity; type: biochemical; conditions: final concentration of PAN-811 1 mM, calcium 0.4 mM, 30 min room temperature
T1 construct: purchased AnaSpec 72009
Text: The principle behind this analysis is as follows. A 5-FAM/QXL™520 fluorescence resonance energy transfer (FRET) peptide is used as a substrate for MMP. The fluorescence of 5-FAM is quenched by QXL™520 in intact FRET peptide. However, upon cleavage of FRET into two separate fragments by MMP, in the presence of Ca^2+, the fluorescence of 5-FAM is recovered, and can be monitored at excitation/emission wavelengths of […]/520 nm with a fluorometer. Thus, an inhibitor of MMP-9 could suppress the cleavage of FRET by MMP-9 and decrease the fluorescence intensity of 5-FAM. To test the effect of PAN-811 on the bioactivity of MMP-9, black 96-well plates (Cat #3603, Costar®), Corning Inc.) were pre-warmed at 37° C. 4-aminophenylmercuric acetate (APMA) was diluted 20-fold with assay buffer (both in MMP assay kit) to a final concentration of […]. Recombinant human pro-MMP-9 (10 μg/ml, Cat #72009, AnaSpec, San Jose) was pre-incubated with 1 mM APMA at 37° C. for 2 hours to activate this enzyme. […] Treated wells were incubated at room temperature for 30 min and the fluorescence intensity of 5-FAM was determined for each sample by measurement at excitation/emission wavelengths of 485 nm/520 nm with a fluorometer and reported in RFU (FIGS. 6A and 6B). […]

T1 sequence (P14780 107-707 limits assumed): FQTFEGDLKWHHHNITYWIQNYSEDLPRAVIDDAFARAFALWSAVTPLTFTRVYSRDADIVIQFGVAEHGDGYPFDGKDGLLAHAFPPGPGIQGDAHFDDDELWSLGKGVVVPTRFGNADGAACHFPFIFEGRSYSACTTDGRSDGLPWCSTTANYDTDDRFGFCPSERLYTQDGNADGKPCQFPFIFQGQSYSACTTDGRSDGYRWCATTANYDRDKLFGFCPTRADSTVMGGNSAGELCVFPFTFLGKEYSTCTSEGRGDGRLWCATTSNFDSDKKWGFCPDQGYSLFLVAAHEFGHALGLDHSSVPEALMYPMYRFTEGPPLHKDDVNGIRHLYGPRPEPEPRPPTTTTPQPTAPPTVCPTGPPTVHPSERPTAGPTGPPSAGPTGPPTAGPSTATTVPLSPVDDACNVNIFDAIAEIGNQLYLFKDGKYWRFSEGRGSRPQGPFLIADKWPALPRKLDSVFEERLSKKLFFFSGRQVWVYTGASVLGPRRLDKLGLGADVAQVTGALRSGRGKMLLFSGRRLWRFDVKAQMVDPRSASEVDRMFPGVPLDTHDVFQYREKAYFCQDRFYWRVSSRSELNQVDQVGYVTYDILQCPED

With NC(=S)N/N=C/c1ncccc1N [PAN-811, 3-aminopyridine-2-carboxaldehyde thiosemicarbazone] the “reduction in edema volume” value ([1]; 2 mg/kg i.v., compared to the high vehicle group, 22 hours) was 70%, the “reduction in edema volume” value ([1]; 5 mg/kg i.v., compared with High vehicle group, 22 hours (data not shown)) was 31% and the premature mortality rate ([1]; all PAN-811 treated groups (9 of 57), vehicle groups 28%) was 15.8%. The “reduction of premature mortality” value ([1]; all PAN-811 treated groups versus the 2 vehicle-treated groups) was 44% and the “suppression of pro-MMP-9-catalyzed increase in fluorescence intensity” value [2] was 64%.
